The test system of data set [1] is Apis mellifera. The note with it: acute, duration: 48 hours, mortality.
In data set [2] the test system is Colinus virginianus.
For data set [3], the system named is Cyprinus carpio. The note with it: acute; duration: 96 hours; mortality.
Data set [4] has as its system Neomysis kadiakensis. The conditions noted are these: chronic/long-term; duration: 28 days; reproduction.
In data set [5] the test system is Pimephales promelas. The conditions noted are these: chronic/long-term, duration: 33 days.
Data set [6] concerns Rattus norvegicus.
The test system of data set [7] is Daphnia magna. The conditions noted are these: chronic/long-term; duration: 21 days; reproduction.
The test system of data set [8] is Hypoaspis aculeifer. The note with it: chronic/long-term; duration: 14 days; reproduction.
The test system of data set [9] is Oncorhynchus mykiss. The note with it: acute; duration: 96 hours; mortality.
In data set [10] the test system is Tagia sp. The conditions noted are these: chronic/long-term; duration: 56 days; reproduction.
The mark [11] stands for this setting: chronic, duration: 2 years, histopathology: neoplastic.

A word on the LC50: it is the concentration that kills 50% of the test population. Usually NOAEL stands for the highest dose or exposure tested at which no adverse effect was seen. In the case of `COc1c(Cl)ccc(-c2nc(C(=O)OCc3ccccc3)c(Cl)c(N)c2F)c1F` [Florpyrauxifen-benzyl], the LD50 in data set [1] (dermal) is more than 100 µg/piece; in data set [1] (oral, unspecified), more than 105 µg/piece; in data set [2] (acute, oral, mortality) it was more than 2250 mg/kg-day; in [6] (acute, oral, mortality), more than 5000 mg/kg-day. This compound also came in with an NOEL in [2] (reproduction developmental) of 87.2 mg/kg-day. In data set [3], this compound returned an LC50 of more than 0.0414 µg/mL. Further, the results for the NOEC in data set [4] and in [5] (development) were 0.0078 mg/L and 0.037 mg/L, respectively. Also, the NOAEL in data set [6] (setting [11]) turned out to be 50 mg/kg-day; in data set [6] (reproduction developmental, no effects), 300 mg/kg-day.
Take `COc1c(Cl)ccc(-c2nc(C(=O)O)c(Cl)c(N)c2F)c1F` [Florpyrauxifen]: the NOEC in data set [7] came out at 25 mg/L; in data set [8] it was 25 mg/kg; in [5] (other), 29.8 mg/L; in data set [10] it was 213 mg/kg. Moreover, the LC50 in data set [9] was more than 100 µg/mL. For the same compound, the NOAEL in data set [6] (setting [11]) is 50 mg/kg-day.
